From PMC5761851, “Application of a phenotypic drug discovery strategy to identify biological and chemical starting points for inhibition of TSLP production in lung epithelial cells” (PLoS ONE, 2018)
Values joined by “and” are separate entries in the source; they are usually repeats but may differ in a detail not shown here. Equal values may be shown once.

Experiments:
Assay in all cases: kinase selectivity panel
Type in all cases: biochemical
CDK2/cyclinA = molecular target: T1, CDK2/cyclinA (Homo sapiens, UniProt P24941); details: read-out: percentage of control activity (POC), CDK2/cyclinA
T1 construct: purchased Eurofins Pharma Discovery Services (KinaseProfiler; Cerep BioPrint panel)
Procedure: (§1) Kinase selectivity was evaluated at Eurofins Pharma Discovery Services using a selection of 125 representative kinases tested at a concentration of 10 μM in duplicate (S3 Table). IC50 values for selected activities were further characterized at 9 duplicate concentrations. DNA-PK activity was determined at the SelectScreen® Biochemical kinase Profiling Service of Thermo Fisher Scientific.

GSK3α = molecular target: T2, GSK3α (Homo sapiens, UniProt P49840); details: read-out: percentage of control activity (POC), GSK3α
T2 construct: purchased Eurofins Pharma Discovery Services (KinaseProfiler; Cerep BioPrint panel)
Procedure: as §1

MAPK2 = molecular target: T3, MAPK2 (Homo sapiens, UniProt P28482); details: read-out: percentage of control activity (POC), MAPK2
T3 construct: purchased Eurofins Pharma Discovery Services (KinaseProfiler; Cerep BioPrint panel)
Procedure: as §1

Met = molecular target: T4, Met (Homo sapiens, UniProt P08581); details: read-out: percentage of control activity (POC), Met
T4 construct: purchased Eurofins Pharma Discovery Services (KinaseProfiler; Cerep BioPrint panel)
Procedure: as §1

MuSK = molecular target: T5, MuSK (Homo sapiens, UniProt O15146); details: read-out: percentage of control activity (POC), MuSK
T5 construct: purchased Eurofins Pharma Discovery Services (KinaseProfiler; Cerep BioPrint panel)
T5 sequence (O15146 24-869): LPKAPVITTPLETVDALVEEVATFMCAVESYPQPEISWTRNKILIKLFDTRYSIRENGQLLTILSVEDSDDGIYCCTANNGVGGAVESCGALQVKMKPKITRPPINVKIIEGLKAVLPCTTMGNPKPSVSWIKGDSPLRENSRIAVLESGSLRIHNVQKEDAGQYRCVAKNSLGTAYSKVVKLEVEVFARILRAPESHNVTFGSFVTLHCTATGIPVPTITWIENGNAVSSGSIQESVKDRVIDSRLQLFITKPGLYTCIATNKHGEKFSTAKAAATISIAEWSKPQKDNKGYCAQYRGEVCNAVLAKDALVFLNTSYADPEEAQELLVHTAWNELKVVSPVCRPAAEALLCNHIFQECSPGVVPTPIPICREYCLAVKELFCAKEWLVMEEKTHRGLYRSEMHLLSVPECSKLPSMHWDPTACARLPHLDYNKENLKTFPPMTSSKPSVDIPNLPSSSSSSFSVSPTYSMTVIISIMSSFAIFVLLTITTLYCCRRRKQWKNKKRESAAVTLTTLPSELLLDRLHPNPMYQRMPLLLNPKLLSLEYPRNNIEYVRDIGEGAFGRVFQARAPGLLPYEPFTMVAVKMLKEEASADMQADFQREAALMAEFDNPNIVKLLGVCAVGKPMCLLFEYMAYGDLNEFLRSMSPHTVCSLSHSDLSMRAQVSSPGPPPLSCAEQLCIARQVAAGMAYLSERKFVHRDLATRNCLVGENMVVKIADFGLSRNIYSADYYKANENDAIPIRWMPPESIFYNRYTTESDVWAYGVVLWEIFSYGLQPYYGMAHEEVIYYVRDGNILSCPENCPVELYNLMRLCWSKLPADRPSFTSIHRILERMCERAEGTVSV
Procedure: as §1

NLK = molecular target: T6, NLK (Homo sapiens, UniProt Q9UBE8); details: read-out: percentage of control activity (POC), NLK
T6 construct: purchased Eurofins Pharma Discovery Services (KinaseProfiler; Cerep BioPrint panel)
T6 sequence (Q9UBE8 1-527): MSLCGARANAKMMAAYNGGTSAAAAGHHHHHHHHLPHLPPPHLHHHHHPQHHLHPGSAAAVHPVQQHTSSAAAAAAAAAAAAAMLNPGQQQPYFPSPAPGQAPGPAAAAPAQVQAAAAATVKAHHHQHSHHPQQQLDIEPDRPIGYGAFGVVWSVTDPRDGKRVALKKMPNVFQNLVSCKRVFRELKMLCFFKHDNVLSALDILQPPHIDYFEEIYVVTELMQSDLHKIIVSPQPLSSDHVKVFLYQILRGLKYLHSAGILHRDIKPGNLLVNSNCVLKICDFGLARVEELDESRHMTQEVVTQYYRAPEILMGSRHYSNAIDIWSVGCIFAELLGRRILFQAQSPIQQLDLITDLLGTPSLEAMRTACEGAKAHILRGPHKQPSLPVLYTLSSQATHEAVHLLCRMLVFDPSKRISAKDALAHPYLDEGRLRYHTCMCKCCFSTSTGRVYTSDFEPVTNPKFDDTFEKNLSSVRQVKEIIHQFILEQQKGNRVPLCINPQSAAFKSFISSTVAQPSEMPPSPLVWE
Procedure: as §1

PKCι = molecular target: T7, PKCι (Homo sapiens, UniProt P41743); details: read-out: percentage of control activity (POC), PKCι
T7 construct: purchased Eurofins Pharma Discovery Services (KinaseProfiler; Cerep BioPrint panel)
T7 sequence (P41743 1-596): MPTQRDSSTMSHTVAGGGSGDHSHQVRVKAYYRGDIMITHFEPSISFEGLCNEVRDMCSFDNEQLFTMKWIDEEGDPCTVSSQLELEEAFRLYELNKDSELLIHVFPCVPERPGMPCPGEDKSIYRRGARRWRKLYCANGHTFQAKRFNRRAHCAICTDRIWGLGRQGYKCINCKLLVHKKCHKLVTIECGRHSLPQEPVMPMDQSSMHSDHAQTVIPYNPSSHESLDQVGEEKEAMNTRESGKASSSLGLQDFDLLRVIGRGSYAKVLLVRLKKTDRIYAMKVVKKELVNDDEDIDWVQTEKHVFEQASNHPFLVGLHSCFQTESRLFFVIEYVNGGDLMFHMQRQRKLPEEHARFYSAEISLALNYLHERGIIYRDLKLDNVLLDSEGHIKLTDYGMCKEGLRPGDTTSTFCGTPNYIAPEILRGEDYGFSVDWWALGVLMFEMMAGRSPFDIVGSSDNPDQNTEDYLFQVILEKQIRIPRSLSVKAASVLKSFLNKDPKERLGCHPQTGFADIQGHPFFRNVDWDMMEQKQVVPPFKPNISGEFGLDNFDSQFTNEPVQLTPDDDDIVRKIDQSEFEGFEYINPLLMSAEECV
Procedure: as §1

SAPK2b = molecular target: T8, SAPK2b (Homo sapiens, UniProt Q15759); details: for inhibition at 10 µM: read-out: inhibition of p38 β(SAPK2β); for remaining activity at 10 µM: read-out: percentage of control activity (POC), SAPK2b
T8 construct: purchased Eurofins Pharma Discovery Services (KinaseProfiler; Cerep BioPrint panel)
Procedure: as §1

Syk = Syk (Homo sapiens, UniProt P43405); details: read-out: percentage of control activity (POC), Syk
Procedure: as §1

mTOR = molecular target: T9, mTOR (Homo sapiens, UniProt P42345); details: for remaining activity at 10 µM: read-out: percentage of control activity (POC), mTOR
T9 construct: Eurofins Pharma Discovery Services (contract assay service)
Procedure: as §1

T4 sequence (P08581 25-1390): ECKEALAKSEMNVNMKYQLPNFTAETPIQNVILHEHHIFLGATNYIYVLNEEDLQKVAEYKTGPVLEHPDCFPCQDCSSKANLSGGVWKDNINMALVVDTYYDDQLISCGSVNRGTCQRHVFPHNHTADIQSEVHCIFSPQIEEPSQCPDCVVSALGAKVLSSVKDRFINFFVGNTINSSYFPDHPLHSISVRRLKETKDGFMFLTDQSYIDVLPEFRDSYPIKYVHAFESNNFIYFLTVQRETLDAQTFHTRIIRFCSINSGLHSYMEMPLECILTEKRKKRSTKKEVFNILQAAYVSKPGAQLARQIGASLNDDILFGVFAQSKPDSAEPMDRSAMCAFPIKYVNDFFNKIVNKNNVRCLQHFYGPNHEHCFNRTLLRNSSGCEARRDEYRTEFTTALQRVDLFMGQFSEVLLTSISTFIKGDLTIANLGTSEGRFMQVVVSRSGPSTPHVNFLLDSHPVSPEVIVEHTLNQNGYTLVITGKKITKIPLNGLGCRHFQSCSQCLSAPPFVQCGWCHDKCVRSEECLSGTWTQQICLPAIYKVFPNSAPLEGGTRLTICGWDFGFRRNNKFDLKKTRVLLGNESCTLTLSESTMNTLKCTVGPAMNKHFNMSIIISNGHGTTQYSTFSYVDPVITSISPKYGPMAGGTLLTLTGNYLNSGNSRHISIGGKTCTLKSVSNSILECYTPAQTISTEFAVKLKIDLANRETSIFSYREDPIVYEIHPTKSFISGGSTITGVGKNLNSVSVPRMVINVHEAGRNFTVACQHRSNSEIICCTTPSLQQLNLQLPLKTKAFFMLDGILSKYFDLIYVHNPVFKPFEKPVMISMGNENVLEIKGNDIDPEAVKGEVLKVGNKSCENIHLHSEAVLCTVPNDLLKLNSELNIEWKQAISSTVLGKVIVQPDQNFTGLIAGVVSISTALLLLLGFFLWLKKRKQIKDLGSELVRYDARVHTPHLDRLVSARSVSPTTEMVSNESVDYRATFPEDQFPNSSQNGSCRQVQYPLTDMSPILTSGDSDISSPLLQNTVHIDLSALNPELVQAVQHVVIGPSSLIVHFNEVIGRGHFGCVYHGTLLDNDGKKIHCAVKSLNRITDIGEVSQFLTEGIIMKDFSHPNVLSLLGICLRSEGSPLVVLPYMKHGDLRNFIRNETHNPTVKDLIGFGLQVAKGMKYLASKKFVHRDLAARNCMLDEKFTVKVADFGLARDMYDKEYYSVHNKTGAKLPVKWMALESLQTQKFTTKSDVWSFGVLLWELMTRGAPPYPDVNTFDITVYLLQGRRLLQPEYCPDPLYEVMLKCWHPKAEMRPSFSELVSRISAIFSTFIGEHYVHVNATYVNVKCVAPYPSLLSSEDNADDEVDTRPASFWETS
T2 sequence (P49840 whole entry): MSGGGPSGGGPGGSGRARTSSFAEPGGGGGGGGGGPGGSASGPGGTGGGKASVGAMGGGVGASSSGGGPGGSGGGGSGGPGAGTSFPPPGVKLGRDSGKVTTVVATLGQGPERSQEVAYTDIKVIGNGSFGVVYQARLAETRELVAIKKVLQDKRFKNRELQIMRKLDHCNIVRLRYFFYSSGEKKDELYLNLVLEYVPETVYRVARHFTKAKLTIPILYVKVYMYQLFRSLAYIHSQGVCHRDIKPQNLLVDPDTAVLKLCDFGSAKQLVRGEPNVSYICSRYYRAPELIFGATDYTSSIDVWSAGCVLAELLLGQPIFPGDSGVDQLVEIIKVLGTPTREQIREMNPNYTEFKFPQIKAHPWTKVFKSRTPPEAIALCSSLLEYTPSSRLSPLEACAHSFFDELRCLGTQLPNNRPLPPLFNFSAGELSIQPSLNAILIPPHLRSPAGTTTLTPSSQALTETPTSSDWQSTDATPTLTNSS
T8 sequence (Q15759 whole entry): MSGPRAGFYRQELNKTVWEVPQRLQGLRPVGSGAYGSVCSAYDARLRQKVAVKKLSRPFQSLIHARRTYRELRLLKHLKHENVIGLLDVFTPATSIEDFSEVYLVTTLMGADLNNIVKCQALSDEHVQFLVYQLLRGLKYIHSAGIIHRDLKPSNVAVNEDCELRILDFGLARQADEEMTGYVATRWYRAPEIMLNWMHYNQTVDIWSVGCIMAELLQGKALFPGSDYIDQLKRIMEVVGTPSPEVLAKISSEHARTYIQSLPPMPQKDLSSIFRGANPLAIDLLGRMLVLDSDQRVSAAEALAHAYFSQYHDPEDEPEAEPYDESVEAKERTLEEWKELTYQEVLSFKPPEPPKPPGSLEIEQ
T3 sequence (P28482 whole entry): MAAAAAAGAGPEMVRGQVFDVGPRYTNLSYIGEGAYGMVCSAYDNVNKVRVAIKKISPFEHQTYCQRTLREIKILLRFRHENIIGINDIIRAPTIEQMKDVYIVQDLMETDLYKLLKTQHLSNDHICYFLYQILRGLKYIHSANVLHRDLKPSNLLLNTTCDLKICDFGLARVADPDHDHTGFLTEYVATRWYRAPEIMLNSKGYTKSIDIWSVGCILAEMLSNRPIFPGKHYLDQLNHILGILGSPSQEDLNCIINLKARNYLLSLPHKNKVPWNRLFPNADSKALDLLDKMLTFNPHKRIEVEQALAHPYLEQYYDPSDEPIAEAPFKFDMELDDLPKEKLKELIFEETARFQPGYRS

| Structure (SMILES) | remaining activity at 10 µM (CDK2/cyclinA) | remaining activity at 10 µM (GSK3α) | remaining activity at 10 µM (MAPK2) | remaining activity at 10 µM (Met) | remaining activity at 10 µM (MuSK) | remaining activity at 10 µM (NLK) | remaining activity at 10 µM (PKCι) | inhibition at 10 µM (SAPK2b) | remaining activity at 10 µM (SAPK2b) | remaining activity at 10 µM (Syk) | remaining activity at 10 µM (mTOR; 10 μM) | inhibition at 10 µM (mTOR; 10 μM) | IC50 (mTOR; biochemical dose response, duplicate, read-out: Inhibition of indicated activity (IC50, μM): mTOR) |
| --- | --- | --- | --- | --- | --- | --- | --- | --- | --- | --- | --- | --- | --- |
| CC(C)(C)N1CCC(c2cc(-c3ccc(F)cc3Cl)c3cc[n+]([O-])c(-c4c(Cl)cccc4Cl)c3n2)CC1 [compound 2] | 105% | 107% | 105% | 83% | 110% | 86% | 103% | ~100% | -5% | 95% | 101% | – | – |
| Cn1cc(-c2cccc(-c3nc(C(=O)NC4C5CC6CC4CC(O)(C6)C5)c(N)nc3N)c2)cn1 (stereo not shown) [compound 4] | 91% | 76% | 97% | 87% | 101% | 85% | 87% | – | 99% | 66% | 13% | 87% | ~1 µM and 0.964 µM |
| CS(=O)(=O)N1CCN(c2ccc(Nc3ncc(C(N)=O)c(NC4CC4)n3)cc2)CC1 [compound 5] | 78% | 40% | 49% | 45% | 60% | 83% | 83% | – | 82% | 0% | 96% | – | – |

The next lines start with results.

| remaining activity at 10 µM (CDK2/cyclinA) | remaining activity at 10 µM (GSK3α) | remaining activity at 10 µM (MAPK2) | remaining activity at 10 µM (Met) | remaining activity at 10 µM (MuSK) | remaining activity at 10 µM (NLK) | remaining activity at 10 µM (PKCι) | inhibition at 10 µM (SAPK2b) | remaining activity at 10 µM (SAPK2b) | remaining activity at 10 µM (Syk) | remaining activity at 10 µM (mTOR; 10 μM) | Structure (SMILES) | inhibition at 10 µM (mTOR; 10 μM) | IC50 (mTOR; biochemical dose response, duplicate, read-out: Inhibition of indicated activity (IC50, μM): mTOR) |
| --- | --- | --- | --- | --- | --- | --- | --- | --- | --- | --- | --- | --- | --- |
| 101% | 95% | 97% | 86% | 106% | 99% | 100% | ~100% | -6% | 101% | 99% | Cc1ccc(C(=O)NCC2CC2)cc1-c1ccc2c(c1)NC(=O)C21CCCC1 [compound 3] | – | – |
| 105% | 103% | 99% | 109% | 104% | 94% | 103% | ~100% | -4% | 86% | 96% | COc1c(NC(=O)c2ccc(C)c(-c3nnc4c(NCC(C)(C)C)nccn34)c2)cc(C(C)(C)C)cc1NS(C)(=O)=O [compound 7, reference compound] | – | – |
